In ChEMBL document CHEMBL3259629, “Discovery and optimization of piperidyl-1,2,3-triazole ureas as potent, selective, and in vivo-active inhibitors of α/β-hydrolase domain containing 6 (ABHD6)” (J Med Chem, 2013):

What was measured:
Settings in all cases: Neuro2a, 3 nM
[1] = target: T1, Hormone-sensitive lipase (Mus musculus) (UniProt P54310)
T1 sequence (whole entry): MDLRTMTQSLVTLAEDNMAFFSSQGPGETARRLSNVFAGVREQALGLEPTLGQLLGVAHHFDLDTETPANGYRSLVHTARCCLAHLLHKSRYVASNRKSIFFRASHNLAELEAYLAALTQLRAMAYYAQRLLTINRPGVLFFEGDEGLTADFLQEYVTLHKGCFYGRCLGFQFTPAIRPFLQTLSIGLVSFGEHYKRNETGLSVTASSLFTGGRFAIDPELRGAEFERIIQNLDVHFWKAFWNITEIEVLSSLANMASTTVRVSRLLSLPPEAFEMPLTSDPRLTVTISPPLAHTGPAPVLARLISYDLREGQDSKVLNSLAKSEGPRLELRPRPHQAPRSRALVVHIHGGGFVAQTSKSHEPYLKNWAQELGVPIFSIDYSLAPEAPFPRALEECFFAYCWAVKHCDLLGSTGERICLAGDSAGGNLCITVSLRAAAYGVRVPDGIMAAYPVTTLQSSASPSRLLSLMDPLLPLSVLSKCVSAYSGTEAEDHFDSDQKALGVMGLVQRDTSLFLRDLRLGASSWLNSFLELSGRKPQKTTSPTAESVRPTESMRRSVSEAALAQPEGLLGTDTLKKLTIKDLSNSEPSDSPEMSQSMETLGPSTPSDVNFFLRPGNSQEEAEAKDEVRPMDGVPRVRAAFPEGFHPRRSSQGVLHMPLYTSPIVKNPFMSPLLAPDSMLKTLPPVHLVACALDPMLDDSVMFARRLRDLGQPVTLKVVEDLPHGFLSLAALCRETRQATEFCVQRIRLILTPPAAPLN
Description: Inhibition of Lipe in mouse Neuro2a cells at 3 nM after 4 hrs by ABPP-SILAC assay

[2] = target: T2, Diacylglycerol lipase-beta (Mus musculus) (UniProt Q91WC9)
T2 sequence (whole entry): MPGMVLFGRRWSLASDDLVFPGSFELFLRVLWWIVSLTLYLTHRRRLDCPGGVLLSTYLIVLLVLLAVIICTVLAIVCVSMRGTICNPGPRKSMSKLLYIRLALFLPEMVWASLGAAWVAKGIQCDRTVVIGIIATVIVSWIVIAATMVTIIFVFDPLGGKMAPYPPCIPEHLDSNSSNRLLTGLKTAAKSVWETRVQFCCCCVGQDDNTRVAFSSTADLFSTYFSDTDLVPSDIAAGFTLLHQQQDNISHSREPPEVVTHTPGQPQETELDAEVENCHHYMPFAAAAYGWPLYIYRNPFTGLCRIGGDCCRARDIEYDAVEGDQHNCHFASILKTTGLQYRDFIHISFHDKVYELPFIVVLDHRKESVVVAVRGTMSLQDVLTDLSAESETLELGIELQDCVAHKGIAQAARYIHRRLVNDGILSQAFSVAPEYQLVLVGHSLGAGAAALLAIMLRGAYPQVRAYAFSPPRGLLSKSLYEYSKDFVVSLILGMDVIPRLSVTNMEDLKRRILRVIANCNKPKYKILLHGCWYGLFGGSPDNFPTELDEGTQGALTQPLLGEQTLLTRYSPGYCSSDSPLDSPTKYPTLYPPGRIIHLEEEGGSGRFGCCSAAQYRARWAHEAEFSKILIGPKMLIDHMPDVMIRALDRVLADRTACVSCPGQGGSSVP
Description: Inhibition of Daglb in mouse Neuro2a cells at 3 nM after 4 hrs by ABPP-SILAC assay

[3] = target: T3, Fatty-acid amide hydrolase 1 (Mus musculus) (UniProt O08914)
T3 sequence (whole entry): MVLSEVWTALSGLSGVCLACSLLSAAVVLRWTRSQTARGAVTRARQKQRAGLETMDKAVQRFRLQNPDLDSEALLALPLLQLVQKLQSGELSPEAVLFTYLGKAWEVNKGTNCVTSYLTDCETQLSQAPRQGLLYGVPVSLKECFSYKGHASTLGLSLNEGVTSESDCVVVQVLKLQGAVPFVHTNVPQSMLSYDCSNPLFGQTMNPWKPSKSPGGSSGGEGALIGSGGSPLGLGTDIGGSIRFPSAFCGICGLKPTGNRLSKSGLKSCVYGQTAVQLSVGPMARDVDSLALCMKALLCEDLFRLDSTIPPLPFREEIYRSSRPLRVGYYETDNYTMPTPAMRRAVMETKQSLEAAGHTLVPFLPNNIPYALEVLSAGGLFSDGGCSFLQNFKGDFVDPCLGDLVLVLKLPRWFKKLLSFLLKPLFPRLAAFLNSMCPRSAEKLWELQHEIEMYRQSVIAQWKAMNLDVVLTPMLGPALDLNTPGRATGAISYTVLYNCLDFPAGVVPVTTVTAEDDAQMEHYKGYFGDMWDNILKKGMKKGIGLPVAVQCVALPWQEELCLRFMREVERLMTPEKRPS
Description: Inhibition of Faah in mouse Neuro2a cells at 3 nM after 4 hrs by ABPP-SILAC assay

[4] = target: T4, S-formylglutathione hydrolase (Mus musculus) (UniProt Q9R0P3)
T4 sequence (whole entry): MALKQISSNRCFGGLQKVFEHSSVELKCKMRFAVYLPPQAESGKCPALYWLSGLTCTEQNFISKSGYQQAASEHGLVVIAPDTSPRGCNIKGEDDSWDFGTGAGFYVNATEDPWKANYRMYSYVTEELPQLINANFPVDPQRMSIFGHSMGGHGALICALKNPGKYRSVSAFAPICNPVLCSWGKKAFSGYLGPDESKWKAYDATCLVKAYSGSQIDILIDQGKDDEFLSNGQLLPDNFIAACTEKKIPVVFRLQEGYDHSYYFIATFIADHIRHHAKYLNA
Description: Inhibition of Esd in mouse Neuro2a cells at 3 nM after 4 hrs by ABPP-SILAC assay

[5] = target: T5, Platelet-activating factor acetylhydrolase IB subunit alpha2 (Mus musculus) (UniProt Q61206)
T5 sequence (whole entry): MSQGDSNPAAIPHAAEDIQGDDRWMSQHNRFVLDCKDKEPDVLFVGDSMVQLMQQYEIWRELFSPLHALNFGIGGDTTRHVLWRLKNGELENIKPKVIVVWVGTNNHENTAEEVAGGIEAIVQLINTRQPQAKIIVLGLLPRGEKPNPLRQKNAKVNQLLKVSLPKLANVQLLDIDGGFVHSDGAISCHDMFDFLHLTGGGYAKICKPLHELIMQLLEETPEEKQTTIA
Description: Inhibition of Pafah1b2 in mouse Neuro2a cells at 3 nM after 4 hrs by ABPP-SILAC assay

[6] = target: Serine hydrolase RBBP9 (Mus musculus) (UniProt O88851)
Chain of Serine hydrolase RBBP9 (Mus musculus) (O88851 whole entry): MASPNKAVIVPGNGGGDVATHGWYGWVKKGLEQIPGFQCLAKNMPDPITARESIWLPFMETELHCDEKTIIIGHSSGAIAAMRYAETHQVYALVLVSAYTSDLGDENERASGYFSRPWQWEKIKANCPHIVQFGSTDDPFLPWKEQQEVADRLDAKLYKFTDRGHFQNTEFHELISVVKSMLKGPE
Description: Inhibition of Rbbp9 in mouse Neuro2a cells at 3 nM after 4 hrs by ABPP-SILAC assay

Measured: inhibition

O=C(N1CCCCC1c1ccccc1)n1cc(-c2ccc(-c3cccc(CO)c3)cc2)nn1 (racemic)
< 50%: all assays above

O=C(c1cccc(-c2ccc(-c3cn(C(=O)N4CCCCC4c4ccccc4)nn3)cc2)c1)N1CCCCC1 (racemic)
< 50%: all assays above

O=C(O)c1cccc(-c2ccc(-c3cn(C(=O)N4CCCCC4Cc4ccccc4)nn3)cc2)c1 (racemic)
< 50%: all assays above
